Laboratory results as given in US20060276464A1, “Diarylsulfone sulfonamides and use thereof” (Wyeth, priority 2005, published 2006).

Assays:
SFRP-1 [1] = target: T1, SFRP-1 (Homo sapiens, UniProt Q8N474); assay: Cell-based assay for in vitro measurement of SFRP-1/SARP2 antagonist activity (U2OS cells co-transfected with 16x TCF-tk-Luciferase reporter, Wnt and hSFRP-1); conditions: U2OS, read-out: Fold Induction with SFRP-1, U2OS cells, single dose 10 μM, luciferase reporter, fold induction over SFRP-1 control;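 also: U2OS cells co-transfected with a TCF-tk luciferase reporter, a Wnt vector, hSFRP-1 or empty vector and CMV-βgal, luciferase luminescence read in cell lysates alongside βgal activity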
T1 sequence (Q8N474 32-314): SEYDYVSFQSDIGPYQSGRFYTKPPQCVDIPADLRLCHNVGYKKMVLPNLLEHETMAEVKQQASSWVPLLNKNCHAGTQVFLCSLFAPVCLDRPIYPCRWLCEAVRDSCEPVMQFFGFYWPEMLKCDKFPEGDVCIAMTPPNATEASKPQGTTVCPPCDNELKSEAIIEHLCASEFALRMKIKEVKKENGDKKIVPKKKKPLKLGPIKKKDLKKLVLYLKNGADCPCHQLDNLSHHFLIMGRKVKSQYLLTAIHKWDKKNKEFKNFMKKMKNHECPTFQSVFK

SFRP-1 [2] = target: T1, SFRP-1; assay: Fluorescence polarization binding assay (competitive displacement of a probe compound from SFRP-1); conditions: fluorescence anisotropy, 45 nM SFRP-1, 20 nM probe;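 also: test compound competes with a fluorescent probe held by SFRP-1, seen as a drop in probe anisotropy after incubation in darkness, with anisotropy as function of rising compound dose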

fold induction at 10 µM (SFRP-1 [1]): 3
IC50 (SFRP-1 [2]): 300 nM
melting point: 215 to 218 °C
SMILES: CC(C)c1ccc(S(=O)(=O)c2ccccc2)cc1S(=O)(=O)NC1CCN(C(=O)c2cccc(F)c2)CC1 [Example 804, N-[1-(3-Fluorobenzoyl)piperidin-4-yl]-2-isopropyl-5-(phenylsulfonyl)benzenesulfonamide]
